Assay: xn = mol fraction of the nth substance listed
Details: for electrical conductivity: 101 kPa; for viscosity: 100 kPa

CCCCCCCCCCCCOS(=O)(=O)[O-].[Na+] + O
Details	electrical conductivity [S/m]	viscosity [mPa·s]
283.1 K, x1 = 6.483e-05	0.01714	–
283.1 K, x1 = 6.941e-05	0.01821	–
283.1 K, x1 = 7.476e-05	0.01971	–
283.1 K, x1 = 8.126e-05	0.02131	–
283.1 K, x1 = 8.852e-05	0.02313	–
283.1 K, x1 = 9.769e-05	0.02537	–
283.1 K, x1 = 0.0001027	0.02665	–
283.1 K, x1 = 0.0001088	0.02815	–
283.1 K, x1 = 0.0001153	0.02986	–
283.1 K, x1 = 0.0001225	0.03168	–
283.1 K, x1 = 0.000131	0.03381	–
283.1 K, x1 = 0.0001413	0.03617	–
283.1 K, x1 = 0.0001516	0.03884	–
283.1 K, x1 = 0.0001654	0.04066	–
283.1 K, x1 = 0.0001807	0.04228	–
283.1 K, x1 = 0.0001998	0.044	–
283.1 K, x1 = 0.0002228	0.04584	–
283.1 K, x1 = 0.0002339	0.0467	–
283.1 K, x1 = 0.0002461	0.04778	–
283.1 K, x1 = 0.0002595	0.04865	–
283.1 K, x1 = 0.0002745	0.04994	–
283.1 K, x1 = 0.0002921	0.05135	–
288.15 K, x1 = 6.595e-05	0.01969	–
288.15 K, x1 = 7.09e-05	0.02119	–
288.15 K, x1 = 7.663e-05	0.02279	–
288.15 K, x1 = 8.276e-05	0.0245	–
288.15 K, x1 = 9e-05	0.02696	–
288.15 K, x1 = 9.917e-05	0.02952	–
288.15 K, x1 = 0.0001045	0.03102	–
288.15 K, x1 = 0.0001107	0.03273	–
288.15 K, x1 = 0.0001168	0.03465	–
288.15 K, x1 = 0.0001244	0.03679	–
288.15 K, x1 = 0.0001328	0.03924	–
288.15 K, x1 = 0.0001424	0.04191	–
288.15 K, x1 = 0.0001538	0.04459	–
288.15 K, x1 = 0.0001668	0.0463	–
288.15 K, x1 = 0.0001829	0.04792	–
288.15 K, x1 = 0.0002013	0.04975	–
288.15 K, x1 = 0.0002246	0.05212	–
288.15 K, x1 = 0.0002357	0.05319	–
288.15 K, x1 = 0.0002468	0.05427	–
288.15 K, x1 = 0.0002602	0.05567	–
288.15 K, x1 = 0.0002748	0.05707	–
288.15 K, x1 = 0.0002912	0.05868	–
293.15 K, x1 = 1.802e-05	–	0.968
293.15 K, x1 = 3.604e-05	–	0.97
293.15 K, x1 = 5.406e-05	–	0.971
293.15 K, x1 = 6.553e-05	0.02214	–
293.15 K, x1 = 6.973e-05	0.02364	–
293.15 K, x1 = 7.207e-05	–	0.974
293.15 K, x1 = 7.508e-05	0.02545	–
293.15 K, x1 = 8.157e-05	0.02759	–
293.15 K, x1 = 8.883e-05	0.03004	–
293.15 K, x1 = 9.009e-05	–	0.978
293.15 K, x1 = 9.76e-05	0.03303	–
293.15 K, x1 = 0.000103	0.03463	–
293.15 K, x1 = 0.0001081	–	0.981
293.15 K, x1 = 0.0001091	0.03666	–
293.15 K, x1 = 0.0001152	0.03858	–
293.15 K, x1 = 0.0001228	0.04104	–
293.15 K, x1 = 0.0001261	–	0.984
293.15 K, x1 = 0.0001312	0.04371	–
293.15 K, x1 = 0.0001408	0.0468	–
293.15 K, x1 = 0.0001441	–	0.986
293.15 K, x1 = 0.0001522	0.04969	–
293.15 K, x1 = 0.0001622	–	0.988
293.15 K, x1 = 0.0001649	0.05162	–
293.15 K, x1 = 0.0001802	–	0.989
293.15 K, x1 = 0.0001805	0.05366	–
293.15 K, x1 = 0.0001982	–	0.992
293.15 K, x1 = 0.0001989	0.05581	–
293.15 K, x1 = 0.0002162	–	0.993
293.15 K, x1 = 0.0002219	0.0586	–
293.15 K, x1 = 0.0002326	0.05979	–
293.15 K, x1 = 0.0002342	–	0.993
293.15 K, x1 = 0.0002441	0.06118	–
293.15 K, x1 = 0.0002522	–	0.995
293.15 K, x1 = 0.0002575	0.06269	–
293.15 K, x1 = 0.0002702	–	0.996
293.15 K, x1 = 0.000272	0.06419	–
293.15 K, x1 = 0.0002889	0.06613	–
298.15 K, x1 = 1.802e-05	–	0.853
298.15 K, x1 = 3.604e-05	–	0.854
298.15 K, x1 = 5.406e-05	–	0.855
298.15 K, x1 = 6.168e-05	0.02352	–
298.15 K, x1 = 6.588e-05	0.02512	–
298.15 K, x1 = 7.207e-05	–	0.856
298.15 K, x1 = 7.696e-05	0.02928	–
298.15 K, x1 = 8.42e-05	0.03184	–
298.15 K, x1 = 9.009e-05	–	0.857
298.15 K, x1 = 9.222e-05	0.03505	–
298.15 K, x1 = 9.755e-05	0.03686	–
298.15 K, x1 = 0.0001029	0.03889	–
298.15 K, x1 = 0.0001081	–	0.857
298.15 K, x1 = 0.0001261	–	0.858
298.15 K, x1 = 0.0001441	–	0.86
298.15 K, x1 = 0.0001622	–	0.862
298.15 K, x1 = 0.0001802	–	0.863
298.15 K, x1 = 0.0001982	–	0.864
298.15 K, x1 = 0.0002162	–	0.865
298.15 K, x1 = 0.0002342	–	0.866
298.15 K, x1 = 0.0002522	–	0.866
298.15 K, x1 = 0.0002702	–	0.867
303.15 K, x1 = 1.802e-05	–	0.764
303.15 K, x1 = 3.604e-05	–	0.766
303.15 K, x1 = 5.406e-05	–	0.767
303.15 K, x1 = 7.207e-05	–	0.768
303.15 K, x1 = 9.009e-05	–	0.769
303.15 K, x1 = 0.0001081	–	0.77
303.15 K, x1 = 0.0001261	–	0.772
303.15 K, x1 = 0.0001441	–	0.773
303.15 K, x1 = 0.0001622	–	0.774
303.15 K, x1 = 0.0001802	–	0.775
303.15 K, x1 = 0.0001982	–	0.776
303.15 K, x1 = 0.0002162	–	0.776
303.15 K, x1 = 0.0002342	–	0.777
303.15 K, x1 = 0.0002522	–	0.778
303.15 K, x1 = 0.0002702	–	0.779
308.15 K, x1 = 1.802e-05	–	0.69
308.15 K, x1 = 3.604e-05	–	0.691
308.15 K, x1 = 5.406e-05	–	0.691
308.15 K, x1 = 7.207e-05	–	0.692
308.15 K, x1 = 9.009e-05	–	0.694
308.15 K, x1 = 0.0001081	–	0.695
308.15 K, x1 = 0.0001261	–	0.696
308.15 K, x1 = 0.0001441	–	0.698
308.15 K, x1 = 0.0001622	–	0.7
308.15 K, x1 = 0.0001802	–	0.701
308.15 K, x1 = 0.0001982	–	0.702
308.15 K, x1 = 0.0002162	–	0.702
308.15 K, x1 = 0.0002342	–	0.704
308.15 K, x1 = 0.0002522	–	0.704
308.15 K, x1 = 0.0002702	–	0.705
313.15 K, x1 = 1.802e-05	–	0.599
313.15 K, x1 = 3.604e-05	–	0.6
313.15 K, x1 = 5.406e-05	–	0.601
313.15 K, x1 = 7.207e-05	–	0.601
313.15 K, x1 = 9.009e-05	–	0.602
313.15 K, x1 = 0.0001081	–	0.603
313.15 K, x1 = 0.0001261	–	0.604
313.15 K, x1 = 0.0001441	–	0.605
313.15 K, x1 = 0.0001622	–	0.605
313.15 K, x1 = 0.0001802	–	0.606
313.15 K, x1 = 0.0001982	–	0.607
313.15 K, x1 = 0.0002162	–	0.608
313.15 K, x1 = 0.0002342	–	0.609
313.15 K, x1 = 0.0002522	–	0.609
313.15 K, x1 = 0.0002702	–	0.61
318.15 K, x1 = 1.802e-05	–	0.567
318.15 K, x1 = 3.604e-05	–	0.568
318.15 K, x1 = 5.406e-05	–	0.57
318.15 K, x1 = 7.207e-05	–	0.57
318.15 K, x1 = 9.009e-05	–	0.571
318.15 K, x1 = 0.0001081	–	0.571
318.15 K, x1 = 0.0001261	–	0.572
318.15 K, x1 = 0.0001441	–	0.573
318.15 K, x1 = 0.0001622	–	0.574
318.15 K, x1 = 0.0001802	–	0.575
318.15 K, x1 = 0.0001982	–	0.576
318.15 K, x1 = 0.0002162	–	0.576
318.15 K, x1 = 0.0002342	–	0.577
318.15 K, x1 = 0.0002522	–	0.577
318.15 K, x1 = 0.0002702	–	0.578

298.15 K, frequency 0.001 MHz
Details	electrical conductivity [S/m]
x1 = 1.029e-05	0.00434
x1 = 2.57e-05	0.0104
x1 = 3.699e-05	0.0155
x1 = 5.034e-05	0.0213
x1 = 6.37e-05	0.0264
x1 = 7.295e-05	0.0301
x1 = 8.321e-05	0.0349
x1 = 9.348e-05	0.0392
x1 = 0.0001038	0.0422
x1 = 0.000113	0.0461
x1 = 0.0001212	0.051
x1 = 0.0001315	0.054
x1 = 0.0001418	0.0567
x1 = 0.00015	0.0607
x1 = 0.0001582	0.0631
x1 = 0.0001665	0.0649
x1 = 0.000183	0.0673
x1 = 0.0001944	0.0683
x1 = 0.0002036	0.0701
x1 = 0.000214	0.0713
x1 = 0.0002222	0.0737
x1 = 0.0002315	0.075
x1 = 0.0002408	0.0771
x1 = 0.0002521	0.0792
x1 = 0.0002625	0.0801
x1 = 0.0002738	0.0823
x1 = 0.0002862	0.0841

Reference: the CheMixHub ionic liquid set
